Test system: lactate dehydrogenase A (LDHA); measured as cellular LDH activity
Assay: LDH activity
Assay type: cell-based

## NCI-737
  IC50: ~100 nM
